Measured values: ChEMBL document CHEMBL5154661, “Novel 2-phenyl-3-(Pyridin-2-yl) thiazolidin-4-one derivatives as potent inhibitors for proliferation of osteosarcoma cells in vitro and in vivo” (Eur J Med Chem, 2022)
Converted amounts (≈) assume the structure as drawn. Each block holds one compound with its values, some of them ahead of it.

Legend:
[1] = Kinetic solubility of compound at pH 6.8 by turbidimetry method; format: physicochemical; details: buffer, read-out: Kinetic_solubility
[2] = Microsomal stability in mouse liver microsomes assessed as intrinsic clearance at 0.1 uM incubated for 10 mins in presence of NADPH by LC-MS/MS analysis; format: ADME, Microsome
HOS-TE85 [3] = assay: Antiproliferative activity against human MNNG/HOS cells assessed as cell growth inhibition measured after 72 hrs by CCK-8 assay; format: functional, cell-based; details: HOS-TE85, 72 h
[4] = Microsomal stability in rat liver microsomes assessed as intrinsic clearance at 0.1 uM incubated for 10 mins in presence of NADPH by LC-MS/MS analysis; format: ADME, Microsome
[5] = Microsomal stability in human liver microsomes assessed as intrinsic clearance at 0.1 uM incubated for 10 mins in presence of NADPH by LC-MS/MS analysis; format: ADME, Microsome
[6] = Kinetic solubility of compound at pH 7.4 by turbidimetry method; format: physicochemical; details: buffer, read-out: Kinetic_solubility
U2OS = assay: Antiproliferative activity against human U2OS cells assessed as cell growth inhibition at 1 uM measured after 72 hrs by CCK-8 assay relative to control; format: functional
SJSA-1 = assay: Antiproliferative activity against human SJSA-1 assessed as cell growth inhibition at 1 uM measured after 72 hrs by CCK-8 assay relative to control; format: functional
HOS-TE85 [7] = assay: Antiproliferative activity against human MNNG/HOS cells assessed as cell growth inhibition at 1 uM measured after 72 hrs by CCK-8 assay relative to control; format: functional
MG-63 = assay: Antiproliferative activity against human MG-63 cells assessed as cell growth inhibition at 1 uM measured after 72 hrs by CCK-8 assay relative to control; format: functional
143B = assay: Antiproliferative activity against human 143B cells assessed as cell growth inhibition at 1 uM measured after 72 hrs by CCK-8 assay relative to control; format: functional
HOS = assay: Antiproliferative activity against human HOS cells assessed as cell growth inhibition at 1 uM measured after 72 hrs by CCK-8 assay relative to control; format: functional

solubility kinetic [1]: 2 µM (≈ 0.941 µg/mL) | intrinsic clearance (CLint) [2]: 2962 mL/min/g | intrinsic clearance (CLint) [4]: 2275 mL/min/g | intrinsic clearance (CLint) [5]: 811 mL/min/g | solubility kinetic [6]: 2 µM (≈ 0.941 µg/mL)
SMILES: O=C(NCCCCc1ccccc1)c1cccc(C2SCC(=O)N2c2ccc(C3CC3)cc2)c1 (stereo unspecified)
IC50 (HOS-TE85 [3]): 217 nM

SMILES: COc1ccccc1N1C(=O)CSC1c1cc(C(=O)NCCCCc2ccccc2)cc(C2CC2)c1 (stereo unspecified)
IC50 (HOS-TE85 [3]): 23.5 nM

solubility kinetic [1]: 10 µM (≈ 4.55 µg/mL) | intrinsic clearance (CLint) [2]: 1903 mL/min/g | intrinsic clearance (CLint) [4]: 1818 mL/min/g | intrinsic clearance (CLint) [5]: 751 mL/min/g | solubility kinetic [6]: 10 µM (≈ 4.55 µg/mL)
SMILES: C#Cc1cccc(N2C(=O)CSC2c2cccc(C(=O)NCCCCc3ccccc3)c2)c1 (stereo unspecified)
IC50 (HOS-TE85 [3]): 149 nM

solubility kinetic [1]: 10 µM (≈ 4.85 µg/mL) | intrinsic clearance (CLint) [2]: 3212 mL/min/g | intrinsic clearance (CLint) [4]: 3129 mL/min/g | intrinsic clearance (CLint) [5]: 2013 mL/min/g | solubility kinetic [6]: 2 µM (≈ 0.969 µg/mL)
SMILES: CC1SC(c2cccc(C(=O)NCCCCc3ccccc3)c2)N(c2ccc(C3CC3)cc2)C1=O (stereo unspecified)
IC50 (HOS-TE85 [3]): 191 nM

SMILES: O=C(NCCCCc1ccccc1)c1cccc(C2SCC(=O)N2c2ccc(N3CCOCC3)cc2)c1 (stereo unspecified)
IC50 (HOS-TE85 [3]): > 1000 nM

SMILES: CC(C)(C)c1conc1N1C(=O)CSC1c1cccc(C(=O)NCCCCc2ccccc2)c1 (stereo unspecified)
IC50 (HOS-TE85 [3]): > 1000 nM

SMILES: O=C(NCCCCn1cccn1)c1cccc(C2SCC(=O)N2c2ccncc2)c1 (stereo unspecified)
IC50 (HOS-TE85 [3]): > 1000 nM

solubility kinetic [1]: 10 µM (≈ 4.85 µg/mL) | intrinsic clearance (CLint) [2]: 2490 mL/min/g | intrinsic clearance (CLint) [4]: 2204 mL/min/g | intrinsic clearance (CLint) [5]: 1727 mL/min/g | solubility kinetic [6]: 10 µM (≈ 4.85 µg/mL)
SMILES: C#Cc1cc(C(=O)NCCCCc2ccccc2)cc(C2SCC(=O)N2c2ccccc2OC)c1 (stereo unspecified)
IC50 (HOS-TE85 [3]): 40.8 nM

SMILES: COc1ccccc1N1C(=O)CSC1c1cc(F)cc(C(=O)O)c1 (stereo unspecified)
inhibition at 1 µM (U2OS): 15% | inhibition at 1 µM (SJSA-1): 0% | IC50 (HOS-TE85 [3]): > 1000 nM | inhibition at 1 µM (HOS-TE85 [7]): 0% | inhibition at 1 µM (MG-63): 0% | inhibition at 1 µM (143B): 0% | inhibition at 1 µM (HOS): 8%

solubility kinetic [1]: 50 µM (≈ 22 µg/mL) | intrinsic clearance (CLint) [2]: 397 mL/min/g | intrinsic clearance (CLint) [4]: 1198 mL/min/g | intrinsic clearance (CLint) [5]: 116.4 mL/min/g | solubility kinetic [6]: 50 µM (≈ 22 µg/mL)
SMILES: O=C(NCCCCn1cccn1)c1cccc(C2SCC(=O)N2c2cc(F)ccn2)c1 (stereo unspecified)
IC50 (HOS-TE85 [3]): 33.2 nM

solubility kinetic [1]: 10 µM (≈ 4.79 µg/mL) | intrinsic clearance (CLint) [2]: 1434 mL/min/g | intrinsic clearance (CLint) [4]: 3259 mL/min/g | intrinsic clearance (CLint) [5]: 2076 mL/min/g | solubility kinetic [6]: 10 µM (≈ 4.79 µg/mL)
SMILES: COc1ccccc1N1C(=O)CSC1c1cc(F)cc(C(=O)NCCCCc2ccccc2)c1 (stereo unspecified)
IC50 (HOS-TE85 [3]): 40.9 nM

SMILES: COc1ccc(C)cc1N1C(=O)CSC1c1cccc(C(=O)NCCCCc2ccccc2)c1 (stereo unspecified)
inhibition at 1 µM (U2OS): 30% | inhibition at 1 µM (SJSA-1): 79% | IC50 (HOS-TE85 [3]): 300 nM | inhibition at 1 µM (HOS-TE85 [7]): 95% | inhibition at 1 µM (MG-63): 92% | inhibition at 1 µM (143B): 29% | inhibition at 1 µM (HOS): 42%

SMILES: O=C(NCCCCn1cccn1)c1cccc(C2SCC(=O)N2c2cccc(C3CC3)c2)c1 (stereo unspecified)
IC50 (HOS-TE85 [3]): 298 nM

SMILES: CCC1(c2ccc(N3C(=O)CSC3c3cccc(C(=O)NCCCCn4cccn4)c3)cc2)CCC(=O)NC1=O (stereo unspecified)
IC50 (HOS-TE85 [3]): > 1000 nM

SMILES: COc1ccccc1N1C(=O)CSC1C(=O)NCCCCc1ccccc1 (stereo unspecified)
inhibition at 1 µM (U2OS): 6% | inhibition at 1 µM (SJSA-1): 14% | IC50 (HOS-TE85 [3]): > 1000 nM | inhibition at 1 µM (HOS-TE85 [7]): 0% | inhibition at 1 µM (MG-63): 60% | inhibition at 1 µM (143B): 4% | inhibition at 1 µM (HOS): 0%

SMILES: COc1cccc(OC)c1N1C(=O)CSC1c1cccc(C(=O)NCCCCc2ccccc2)c1 (stereo unspecified)
inhibition at 1 µM (U2OS): 41% | inhibition at 1 µM (SJSA-1): 72% | IC50 (HOS-TE85 [3]): > 1000 nM | inhibition at 1 µM (HOS-TE85 [7]): 95% | inhibition at 1 µM (MG-63): 80% | inhibition at 1 µM (143B): 31% | inhibition at 1 µM (HOS): 80%

SMILES: CCN(CC)c1ccc(N2C(=O)CSC2c2cccc(C(=O)NCCCCc3ccccc3)c2)cc1 (stereo unspecified)
IC50 (HOS-TE85 [3]): > 1000 nM

SMILES: CCOC(=O)c1sc(N2C(=O)CSC2c2cccc(C(=O)NCCCCn3cccn3)c2)nc1C (stereo unspecified)
IC50 (HOS-TE85 [3]): 430 nM

SMILES: COc1ccccc1N1C(=O)CSC1c1cccc(C(=O)NCCCCN2CCN(C(=O)OC(C)(C)C)CC2)c1 (stereo unspecified)
IC50 (HOS-TE85 [3]): > 1000 nM

SMILES: COc1ccc(N2C(=O)CSC2c2cccc(C(=O)NCCCCc3ccccc3)c2)c(OC)c1 (stereo unspecified)
inhibition at 1 µM (U2OS): 37% | inhibition at 1 µM (SJSA-1): 85% | IC50 (HOS-TE85 [3]): 90.4 nM | inhibition at 1 µM (HOS-TE85 [7]): 58% | inhibition at 1 µM (MG-63): 56% | inhibition at 1 µM (143B): 53% | inhibition at 1 µM (HOS): 82%

SMILES: O=C(NCCCCc1ccccc1)c1cccc(C2SCC(=O)N2c2nccs2)c1 (stereo unspecified)
IC50 (HOS-TE85 [3]): > 1000 nM

SMILES: O=C(NCCCCn1cccn1)c1cccc(C2SCC(=O)N2c2cc(Br)ccn2)c1 (stereo unspecified)
IC50 (HOS-TE85 [3]): 105 nM

SMILES: COc1c(F)cccc1N1C(=O)CSC1c1cccc(C(=O)NCCCCc2ccccc2)c1 (stereo unspecified)
inhibition at 1 µM (U2OS): 12% | inhibition at 1 µM (SJSA-1): 1% | IC50 (HOS-TE85 [3]): 26.2 nM | inhibition at 1 µM (HOS-TE85 [7]): 12% | inhibition at 1 µM (MG-63): 0% | inhibition at 1 µM (143B): 5% | inhibition at 1 µM (HOS): 9%

SMILES: COc1ccccc1N1C(=O)CSC1c1cccc(C(=O)NCCCCc2ccc(Cl)cc2)c1 (stereo unspecified)
IC50 (HOS-TE85 [3]): 78.6 nM

solubility kinetic [1]: 50 µM (≈ 23.4 µg/mL) | intrinsic clearance (CLint) [2]: 1312 mL/min/g | intrinsic clearance (CLint) [4]: 1472 mL/min/g | intrinsic clearance (CLint) [5]: 421 mL/min/g | solubility kinetic [6]: 50 µM (≈ 23.4 µg/mL)
SMILES: COc1ccc(F)cc1N1C(=O)CSC1c1cccc(C(=O)NCCCCn2cccn2)c1 (stereo unspecified)
IC50 (HOS-TE85 [3]): 97.3 nM
